For 26 compounds, IC50 results are on record in US6780994B2, “Phthalimido arylpiperazines useful in the treatment of benign prostatic hyperplasia” (Ortho-McNeil Pharmaceutical, Inc., priority 1998, dated 2004).

For orientation: pIC50 means the IC50 on a negative log10 scale, so that one unit is a factor of ten. Lower therefore signals a large IC50.

The target in assay [1] is T1, α1d-AR (Homo sapiens, UniProt P25100).
T1 construct: expressed in transfected cells; host or cells: COS cells, pcDNA3 vector, transient DEAE-dextran transfection
T1 sequence (P25100 1-572): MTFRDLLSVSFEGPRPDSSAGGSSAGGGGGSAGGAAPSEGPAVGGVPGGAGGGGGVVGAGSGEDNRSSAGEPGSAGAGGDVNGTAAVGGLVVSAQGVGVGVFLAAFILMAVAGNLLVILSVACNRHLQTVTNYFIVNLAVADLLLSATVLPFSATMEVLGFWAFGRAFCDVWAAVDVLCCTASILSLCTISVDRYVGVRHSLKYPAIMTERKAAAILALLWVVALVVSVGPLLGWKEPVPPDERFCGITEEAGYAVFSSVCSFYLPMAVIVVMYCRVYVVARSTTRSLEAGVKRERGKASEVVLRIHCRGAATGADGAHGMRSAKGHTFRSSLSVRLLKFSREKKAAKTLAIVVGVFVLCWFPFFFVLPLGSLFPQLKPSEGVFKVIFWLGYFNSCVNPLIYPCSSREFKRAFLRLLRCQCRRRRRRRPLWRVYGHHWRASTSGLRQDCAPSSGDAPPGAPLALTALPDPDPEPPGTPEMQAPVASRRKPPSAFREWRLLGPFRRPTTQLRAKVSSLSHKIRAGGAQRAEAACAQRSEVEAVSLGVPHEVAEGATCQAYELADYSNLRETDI
As to the kind of experiment: radioligand ([125I]-HEAT) receptor binding assay, COS cell membranes expressing cloned receptor. The following applies: [125I]-HEAT 50 pM, 1 hour room temperature. The text has this: (§1) The first assay tested the ability of compounds of Formula I to bind to membrane bound receptors α1a-AR, α1b-AR and α1d-AR.
(§2) The DNA sequences of the three cloned human α1-AR subtypes have been published. […] We used published DNA sequence information to design primers for use in RT-PCR amplification of each subtype to obtain cloned cDNAs. Human poly A+ RNA was obtained from commercially available sources and included hippocampus and prostate samples, sources which have been cited in the literature. For the primary screen a radioligand binding assay was used which employed membrane preparations from cells expressing the individual cloned receptor cDNAs. Radiolabeled ligands with binding activity on all three subtypes (non-selective) are commercially available ([125I]-HEAT, [3H]-prazosin). Each α1 receptor subtype was cloned from poly A+ RNA by the standard method of reverse transcription-polymerase chain reaction (RT-PCR). The following sources of polyA+ RNA were used for the cloning of the α1 receptor subtypes: α1a-AR, human hippocampus and prostate, α1b-AR, human hippocampus, α1d-AR, human hippocampus. The resulting cDNAs were cloned into the pcDNA3 mammalian expression vector (Invitrogen Corp., San Diego Calif.). Each DNA was sequenced for verification and to detect any possible mutations introduced during the amplification process. Any deviation in sequence from the published consensus for each receptor subtype was corrected by site-directed mutagenesis.
(§3) The three α1-AR subtypes (a, b, d) were transfected into COS cells using a standard DEAE-dextran procedure with a chloroquine shock. In this procedure, each tissue culture dish (100 mm) was inoculated with 3.5×10^6 cells and transfected with 10 μg of DNA. Approximately 72 hours post-transfection, the cells were harvested and COS membranes were prepared. Transfected COS cells from 25 plates (100 mm) were scraped and suspended in 15 mL of TE buffer (50 mM Tris-HCl, 5 mM EDTA, pH 7.4). The suspension was disrupted with a homogenizer. It was then centrifuged at 1000× g for 10 minutes at 4° C. The supernatant was centrifuged at 34,500× g for 20 minutes at 4° C. The pellet was resuspended in 5 mL TNE buffer (50 mM Tris-HCl, 5 mM EDTA, 150 mM NaCl, pH 7.4). The resulting membrane preparation was aliquoted and stored at −70° C. The protein concentration was determined following membrane solubilization with TritonX-100.
(§4) The ability of each compound to bind to each of the α1-AR subtypes was assessed in a receptor binding assay. [125I]-HEAT, a non-selective α1-AR ligand, was used as the radiolabeled ligand. Each well of a 96-well plate received: 140 μL TNE, […] [125I]-HEAT diluted in TNE (50,000 cpm; final concentration 50 pM), 10 μL test compound diluted in DMSO (final concentration 1 pM-10 μM), […] COS cell membrane preparation expressing one of the three α1-AR subtypes (0.05-0.2 mg membrane protein). The plate was incubated for 1 hour at room temperature and the reaction mixtures were filtered through a Packard GF/C Unifilter filter plate. The filter plate was dried for 1 hour in a vacuum oven. Scintillation fluid ([…]) was added to each well, and the filter plate was counted in a Packard Topcount scintillation counter. Data was analyzed using GraphPad Prism software.
(§5) Tables A through D list the IC50 values expressed in nanomolar concentration for select compounds of the invention in all receptor subtypes.

Assay [2] concerns the target T2, α1b-AR (Homo sapiens, UniProt P35368).
T2 construct: expressed in transfected cells; host or cells: COS cells, pcDNA3 vector, transient DEAE-dextran transfection
T2 sequence (P35368 1-520): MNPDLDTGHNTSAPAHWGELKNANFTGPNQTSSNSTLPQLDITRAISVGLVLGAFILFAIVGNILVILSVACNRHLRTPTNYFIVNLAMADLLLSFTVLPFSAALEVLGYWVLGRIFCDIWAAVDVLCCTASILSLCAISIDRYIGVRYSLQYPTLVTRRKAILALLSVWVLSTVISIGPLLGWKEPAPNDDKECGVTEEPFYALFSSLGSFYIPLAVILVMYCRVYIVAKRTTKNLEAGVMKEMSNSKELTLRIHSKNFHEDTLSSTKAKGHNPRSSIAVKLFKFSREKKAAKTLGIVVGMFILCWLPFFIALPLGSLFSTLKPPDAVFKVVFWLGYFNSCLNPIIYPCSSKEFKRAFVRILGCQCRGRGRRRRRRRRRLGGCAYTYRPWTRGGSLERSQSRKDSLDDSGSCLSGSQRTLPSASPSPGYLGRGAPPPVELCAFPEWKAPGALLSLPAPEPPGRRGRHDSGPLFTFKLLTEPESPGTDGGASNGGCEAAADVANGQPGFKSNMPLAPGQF
The description is as above. The following applies: [125I]-HEAT 50 pM, 1 hour room temperature.
Excerpt: as §1, §2, §3, §4, §5

pIC50: −log10 of the molar value. Some results are limits rather than exact numbers.

On to `CC(C)Oc1ccccc1N1CCN(CC(O)CNC(=O)c2ccc3c(c2)C(=O)N(c2ccc(C(C)(C)C)cc2)C3=O)CC1` (stereo not shown) [Compound 41], for which the pIC50 in assay [1] is 7.12; in assay [2], less than 5.70.
For `CC(C)Oc1ccccc1N1CCN(CC(O)CNC(=O)c2ccc3c(c2)C(=O)N(c2cccc(Cl)c2)C3=O)CC1` (stereo not shown) [Compound 54], the pIC50 in assay [1] is 7.43; in assay [2], 6.17.
In the case of `CC(C)Oc1ccccc1N1CCN(CC(O)CNC(=O)c2ccc3c(c2)C(=O)N(c2ccccc2)C3=O)CC1` (stereo not shown) [Compound 51], the negative logarithm of the IC50 (pIC50) in assay [1] was 7.19; in assay [2], less than 5.70.
Take `Cc1ccc(N2C(=O)c3ccc(C(=O)NCC(O)CN4CCN(c5ccccc5OC(C)C)CC4)cc3C2=O)cc1C` (stereo not shown) [Compound 39]: the pIC50 in assay [1] was 7.14; in assay [2], less than 5.70.
For `CC(C)Oc1ccccc1N1CCN(CC(O)CNC(=O)c2ccc3c(c2)C(=O)N(c2ccc(F)cc2)C3=O)CC1` (stereo not shown) [Compound 50] the same measures were 6.95 and less than 5.70.
Take `CC(C)Oc1ccccc1N1CCN(CC(O)CNC(=O)c2ccc3c(c2)C(=O)N(c2ccc(Cl)cc2)C3=O)CC1` (stereo not shown) [Compound 53]: the pIC50 in assay [1] is 7.26; in assay [2], 6.22.
For `Cc1ccc(N2C(=O)c3ccc(C(=O)NCCCN4CCN(c5ccccc5OC(C)C)CC4)cc3C2=O)cc1` [Compound 46] the same measures were 7.43 and less than 5.70.
For `COC(CNC(=O)c1ccc2c(c1)C(=O)N(c1cccc(F)c1)C2=O)CN1CCN(c2ccccc2OC(C)C)CC1` (stereo not shown) [Compound 14] the same measures were 6.39 and less than 5.70.
For `Cc1ccc(N2C(=O)c3ccc(C(=O)NCC(O)CN4CCN(c5ccccc5OC(C)C)CC4)cc3C2=O)cc1` (stereo not shown) [Compound 52] the same measures were 7.21 and less than 5.70.
Take `CC(=O)c1ccc(N2C(=O)c3ccc(C(=O)NCC(O)CN4CCN(c5ccccc5OC(C)C)CC4)cc3C2=O)cc1` (stereo not shown) [Compound 48]: the pIC50 in assay [1] is 7.22; in assay [2], less than 5.70.
For `CC(C)Oc1ccccc1N1CCN(C[C@H](O)CNC(=O)c2ccc3c(c2)C(=O)N(c2cccc(F)c2)C3=O)CC1` [Compound 27] the same measures were 7.20 and less than 5.70.
Regarding `CC(C)Oc1ccccc1N1CCN(CC(O)CNC(=O)c2ccc3c(c2)C(=O)N(c2ccc(O)cc2)C3=O)CC1` (single isomer, unassigned) [Compound 35], the pIC50 is 6.86 in assay [1] and less than 5.70 in assay [2].
For `CC(C)Oc1ccccc1N1CCN(CC(O)CNC(=O)c2ccc3c(c2)C(=O)N(c2ccc(Cl)c(Cl)c2)C3=O)CC1` (stereo not shown) [Compound 56] the same measures were 7.40 and 5.91.
With `CC(C)Oc1ccccc1N1CCN(CC(O)CNC(=O)c2ccc3c(c2)C(=O)N(c2ccc(N(C)C)cc2)C3=O)CC1` (stereo not shown) [Compound 28], the pIC50 in assay [1] is 7.36; in assay [2], less than 5.70.
For `Cc1cccc(N2C(=O)c3ccc(C(=O)NCC(O)CN4CCN(c5ccccc5OC(C)C)CC4)cc3C2=O)c1` (stereo not shown) [Compound 49] the same measures were 7.14 and less than 5.70.
For `CCOc1ccccc1N1CCN(CC(O)CNC(=O)c2ccc3c(c2)C(=O)N(c2cccc(F)c2)C3=O)CC1` (stereo not shown) [Compound 42] the same measures were 6.87 and less than 5.70.
For `CC(C)Oc1ccccc1N1CCN(CCCNC(=O)c2ccc3c(c2)C(=O)N(c2ccc(N(C)C)cc2)C3=O)CC1` [Compound 44] the same measures were 7.82 and 6.33.
As for `COc1ccccc1N1C(=O)c2ccc(C(=O)NCC(O)CN3CCN(c4ccccc4OC(C)C)CC3)cc2C1=O` (stereo not shown) [Compound 26], the pIC50 in assay [1] is 7.13; in assay [2], 5.79.
For `CC(C)Oc1ccccc1N1CCN(CC(O)CNC(=O)c2ccc3c(c2)C(=O)N(c2cccnc2)C3=O)CC1` (stereo not shown) [Compound 11], the pIC50 was 7.51 in assay [1] and less than 5.70 in assay [2].
On to `CC(C)Oc1ccccc1N1CCN(CC(O)CNC(=O)c2ccc3c(c2)C(=O)N(c2cc(F)cc(F)c2)C3=O)CC1` (stereo not shown) [Compound 29], for which the pIC50 in assay [1] was 7.42; in assay [2], 6.05.
For `CC(C)Oc1ccccc1N1CCN(CC(O)CNC(=O)c2ccc3c(c2)C(=O)N(c2ccc(O)cc2)C3=O)CC1` (stereo not shown) [Compound 58] the same measures were 7.55 and less than 5.70.
For `CC(C)Oc1ccccc1N1CCN(CC(O)CNC(=O)c2ccc3c(c2)C(=O)N(c2ccc([N+](=O)[O-])cc2)C3=O)CC1` (stereo not shown) [Compound 30] the same measures were 7.42 and less than 5.70.
As for `CC(C)Oc1ccccc1N1CCN(CC(O)CNC(=O)c2ccc3c(c2)C(=O)N(c2cccc(C(F)(F)F)c2)C3=O)CC1` (stereo not shown) [Compound 57], the pIC50 in assay [1] was 7.05; in assay [2] it was less than 5.70.
For `CC(C)Oc1ccccc1N1CCN(CCCNC(=O)c2ccc3c(c2)C(=O)N(c2ccc(O)cc2)C3=O)CC1` [Compound 47] the same measures were 7.89 and 6.59.
As for `COc1ccccc1N1CCN(CC(O)CNC(=O)c2ccc3c(c2)C(=O)N(c2cccc(F)c2)C3=O)CC1` (stereo not shown) [Compound 43], the pIC50 is 6.27 in assay [1] and less than 5.70 in assay [2].
For `COc1ccc(N2C(=O)c3ccc(C(=O)NCC(O)CN4CCN(c5ccccc5OC(C)C)CC4)cc3C2=O)cc1OC` (stereo not shown) [Compound 38] the same measures were 6.76 and less than 5.70.
